Reference: US9937250B2, “Immunogenic tumor associated stromal cell antigen peptides and methods of their use” (University of Pittsburgh—Of the Commonwealth System of …, priority 2011, dated 2018)

Experiments:
[1] = tested on: CD8+ splenocytes; test: Tc1 response to DC.IL12/peptide vaccination (splenic CD8+ T cell IFN-γ ELISA against peptide-pulsed T2 cells); format: in vivo, HHD mice; conditions: DC.IL12 pulsed with peptide(s), two s.c. vaccinations; versus DC only
From the text: FIGS. 9A-9B show a series of graphs illustrating induction of specific/protective CD8^+ T cells reactive against TASA as a consequence of DC/peptide-based vaccination. In FIG. 9A, HHD mice (five animals/cohort) were vaccinated twice (d-14, d-7) subcutaneously with PBS or with isologous DC.IL12 pulsed with PBS or synthetic peptides (Table 6) derived from the indicated TASA. In cases where more than 1 peptide was identified for a given target antigen, an equimolar pool of the indicated peptides (each 10 μM) was pulsed onto DC.IL12 and used for vaccination in the relevant cohort. One week after the second immunization, spleens were harvested and splenic CD8^+ T cells isolated using MACS-beads (Miltenyi). T cells were stimulated in vitro for 48 h using the HLA-A2^+ T2 cell line pulsed with relevant TASA vs. irrelevant HIV-nef190-198 ([…]; ref. 24) peptides. Cell-free supernatants were then recovered and IFN-γ levels by ELISA. Data are reported as mean+/−SD for triplicate ELISA determinations, and are representative of 3 independent experiments performed. *p<0.05 vs. HIV-nef control peptide responses. In FIG. 9B, HHD mice were vaccinated twice (days −14 and −7; right flank) subcutaneously with PBS or with isologous DC.IL12 pulsed with PBS or synthetic TASA peptides as indicated in FIG. 1A. In cases where more than 1 peptide is identified for a given target antigen, an equimolar pool of the indicated peptides (each 10 μM) was pulsed onto DC.IL12 and used for vaccination in the relevant cohort. One week after the booster vaccine (i.e. day zero), animals were challenged subcutaneously on their left flank with 2×10^6 MC38 colon carcinoma cells. Tumor growth was then monitored every 3-4 days through day 24. All data represent mean tumor area (in mm^2)+/−SD determined from 5 mice/cohort, and are representative of three independent experiments performed. *p<0.05 versus DC only on the indicated days.
Vaccine Experiments. For prophylactic experiments, HHD mice were immunized subcutaneously on the right flank with 100 μl PBS or PBS containing 10^6 syngenic DC.IL12 cells that had been untreated or pre-pulsed for 4 h at 37° C. with 10 μM synthetic peptide(s). Immunizations occurred on days −14 and −7, with mice subsequently receiving injections of MC38 (2×10^6) tumor cells in the left flank on d0. In all cases, treatment groups contained 5 mice per cohort. For analysis of tumor cellular composition in repeat experiments, MC38 tumors were isolated by surgical resection 10 days after tumor inoculation and prepared for fluorescence imaging, as described below. […] Mice were then untreated or treated with control, syngenic DC.IL12 or DC.IL12 (10^6 cells injected subcutaneously in the left flank on days 7 and 14) pulsed with synthetic TBVA peptides. In some assays, as indicated, in vivo antibody depletions (on days 6, 13 and 20 post-tumor inoculation to assess early involvement or on days 60 and 67 or 180 and 187 to assess late involvement) of protective CD4^+ T cells or CD8^+ T cells were performed and monitored as previously described (Zhao et al., Mol Ther., 19:805-814, 2011). In all cases, tumor size (area) was monitored every 3-4 days and is reported as mean+/−SD in mm^2.
Evaluation of Specific CD8^+ T Cell Responses in HHD Mice. MACS (Miltenyi Biotec) CD8^+ splenocytes were harvested (from 3 mice/group) 7 days after the second round of DC-based vaccination (i.e. day 21 after tumor inoculation) and analyzed for reactivity against unpulsed T2 cells, TBVA peptide-pulsed T2 cells, or day 19 (flow-sorted) B16-derived PDGFRβ^+CD31^negH-2K^b(neg) pericytes or PDGFRβ^negCD31^+H-2K^b(neg) VEC isolated as previously described (Zhao et al., Mol Ther., 19:805-814, 2011). Where indicated, 10 μg of anti-HLA-A2 mAb BB7.2 or control anti-class II mAb L243 (both from ATCC, Manassas, Va.) were added to replicate co-culture wells. After 48 h, supernatants were analyzed for mIFN-γ content by specific ELISA (BD-Biosciences; lower detection limit=31.3 pg/ml). […]

[2] = tested on: CD8+ T cells from HLA-A2+ normal donors or HLA-A2+ melanoma patients; test: In vitro sensitization of human CD8+ T cells with TASA peptide-pulsed autologous DC, IFN-γ ELISA against peptide-pulsed T2 cells; format: cell-based; conditions: response = IFN-γ >30 pg/ml and >2 fold HIV-nef control; for Specific CD8+ T Cell Response, HLA-A2+ Normal Donors (of 8): number of responding donors of 8; for Specific CD8+ T Cell Response, HLA-A2+ Melanoma Patients (of 10): number of responding patients of 10
Method: The indicated peptides were pulsed onto autologous DC and used to prime and boost CD8^+ T cells isolated from the peripheral blood of eight normal HLA-A2^+ donors or ten HLA-A2^+ patients with melanoma. Seven days after the primary in vitro sensitization (IVS) (melanoma patients) or a secondary IVS boost (normal donors), T cells were analyzed for their reactivity against HLA-A2^+ T2 cells pulsed with the relevant peptide vs. the negative control HIV-nef190-198 peptide. After 24 hours of co-culture, cell-free supernatants were analyzed for levels of secreted IFN-γ using a commercial ELISA. Data are reported in Bar and Whisker plots, with p-values provided for paired pre- versus post-IVS data from normal donors and patients. In addition, p<0.05 was detected for MEL-Post versus ND-Post for the following peptides: DLK1 (309), NG2 (770), NG2 (2238), PDGFRβ (891) and RGS5 (5).
In vitro assessment of human CD8^+ T cell responses against TASA- or TAA-derived peptides. Peripheral blood mononuclear cells (PBMC) were obtained by venipuncture or leukapheresis from HLA-A2^+ normal donors or HLA-A2^+ melanoma patients with written consent under IRB-approved protocols (Table 3). CD8^+ T cells were then isolated by MACS (Miltenyi Biotec, Auburn, Calif.) and either not stimulated or stimulated with autologous, TASA peptide-pulsed DC as previously described (Tatsumi et al., Cancer Res., 63:4481-4489, 2003). Normal donor T cells were stimulated with TASA peptide-pulsed DC twice on a weekly schedule, with responder T cells harvested for analysis of their specificity 5 days after the booster stimulation (i.e. day 12 of T cell-DC co-culture). Melanoma patient CD8^+ T cells were analyzed after a single round of stimulation with TASA peptide-pulsed, autologous DC (i.e. day 5 of T cell-DC co-culture) as indicated. For DC-based stimulations, DC were pulsed with an equimolar (1 μM each) pool of the TASA peptides (Table 4) for 4 h at 37° C. at 5% CO2 tension. These antigen-loaded DC were then used to stimulate autologous CD8^+ T cells at a T cell-to-DC ratio of 10:1 to generate a bulk population of responder T cells. T cells were maintained in IMDM media supplemented with 10% human AB serum, 100 U/ml penicillin, […], 10 mM L-glutamine and MEM non-essential amino acids (all reagents from Invitrogen, except human AB serum that was purchased from Sigma-Aldrich, St. Louis, Mo.). Responder CD8^+ T cells were analyzed for reactivity against control (HLA-A2^+) T2 cells or T2 cells pulsed with individual TASA or TAA peptides (1 μM for 4 h at 37° C.) at a CD8^+ T cell-to-T2 cell ratio of 5:1 for 24 h. Harvested cell-free supernatants were consequently assessed for hIFN-γ content using a specific ELISA (BD Biosciences, San Diego, Calif.) with a lower detection limit of 4.7 pg/ml.
CD8^+ T cells from HLA-A2^+ normal donors or HLA-A2^+ melanoma patients recognize TASA-derived peptides in vitro. To assess whether the TASA-derived peptides identified in the HHD tumor model were also capable of being recognized by human CD8^+ T cells, IVS was performed using T cells isolated from the peripheral blood of HLA-A2^+ donors or HLA-A2^+ patients with melanoma. DC were pulsed with peptides derived from a given TASA for 4 h at 37° C., then washed and used as stimulator cells for autologous CD8^+ T cells. In cases where more than one peptide existed for a given protein, DC were pulsed with an equimolar (10 μM) mixture of each peptide. Two rounds of IVS using TASA for normal donors and a single-round of IVS using TASA for melanoma patients was applied. HLA-A2^+ normal donors (FIG. 4; Tables 4, 5A and 5B) and melanoma patients (FIG. 4; Tables 4, 5A and 5B) were each capable of recognizing many of the TASA-derived peptides.

Row | Sequence | Tc1 Response to Peptide Vaccine (HHD) [1] | Specific CD8+ T Cell Response, HLA-A2+ Normal Donors (of 8) [2] | Specific CD8+ T Cell Response, HLA-A2+ Melanoma Patients (of 10) [2]
1 | RLTPGVHEL (listed as Homo sapiens) | + (+, p < 0.05 versus DC only) | 1 | 4
2 | RLLGNVLVCV (listed as Homo sapiens) | + (+, p < 0.05 versus DC only) | 1 | 1
3 | TLSNLSFPV (listed as Homo sapiens) | – | 0 | 4
4 | GLLRFVTAV (listed as Homo sapiens) | + (+, p < 0.05 versus DC only) | 2 | 7
5 | VIAMFFWLL (listed as Homo sapiens) | + (+, p < 0.05 versus DC only) | 0 | 0
6 | ILGVLTSLV (listed as Homo sapiens) | + (+, p < 0.05 versus DC only) | 2 | 6
7 | YLQVDLRFL (listed as Homo sapiens) | – | 0 | 4
8 | RLLVVYPWT (listed as Homo sapiens) | + (+, p < 0.05 versus DC only) | 2 | 6
9 | FLNKCETWV (listed as Homo sapiens) | + (+, p < 0.05 versus DC only) | 2 | 4
10 | TLFWLLLTL (listed as Homo sapiens) | + (+, p < 0.05 versus DC only) | 1 | 3
11 | GMLGMVSGL (listed as Homo sapiens) | + (+, p < 0.05 versus DC only) | 2 | 7
12 | DIWDGIPHV (listed as Homo sapiens) | + (+, p < 0.05 versus DC only) | 0 | 4
13 | LLVPTCVFLV (listed as Homo sapiens) | + (+, p < 0.05 versus DC only) | 4 | 4
14 | ILLWEIFTL (listed as Homo sapiens) | + (+, p < 0.05 versus DC only) | 2 | 1
15 | VLLGAVCGV (listed as Homo sapiens) | + (+, p < 0.05 versus DC only) | 2 | 1
16 | TLADFDPRV (listed as Homo sapiens) | + (+, p < 0.05 versus DC only) | 2 | 6
17 | LLQERGVAYI (listed as Homo sapiens) | + (+, p < 0.05 versus DC only) | 0 | 2
18 | LILPLLFYL (listed as Homo sapiens) | + (+, p < 0.05 versus DC only) | 0 | 4
19 | NMLGMLSGL (listed as Homo sapiens) | – | 0 | 0
